# Legend:
# chickweed [1] = experiment: Test Example 5: herbicidal effect by foliage application, plastic box (Table 20, symbol P); type: in vivo, common chickweed (Stellaria media); settings: foliage application, 320 g/ha, three weeks after application
# Outline: (§1)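 Plants were sown into sterilized diluvial soil under about 1.5 cm cover and kept in a greenhouse at 25° C. to 30° C. Fourteen days on, foliage received an even spray of the diluted emulsion. Herbicidal or crop effect was judged three weeks afterwards.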
# blackgrass [2] = experiment: Test Example 5: herbicidal effect by foliage application, plastic box (Table 20, symbol J); type: in vivo, blackgrass (Alopecurus myosuroides); settings: foliage application, 320 g/ha, three weeks after application
# Outline: as §1
# velvetleaf [3] = experiment: Test Example 4: herbicidal effect by soil treatment (Table 19, symbol M); type: in vivo, velvetleaf (Abutilon theophrasti); settings: amount of applied herbicide 320 g/ha
# Outline: (§2)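 In this soil treatment, the formulated compound reached the seeds only through the soil: seeds were buried about 1.5 cm deep in sterilized diluvial soil, then the diluted emulsion was sprayed over the surface. After three weeks at 25° C. to 30° C. in a greenhouse, effects were graded on criteria from an earlier test.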
# wild oat [4] = experiment: Test Example 5: herbicidal effect by foliage application, plastic box (Table 20, symbol I); type: in vivo, wild oat (Avena fatua); settings: foliage application, 320 g/ha, three weeks after application
# Outline: as §1
# persian speedwell [5] = experiment: Test Example 4: herbicidal effect by soil treatment (Table 19, symbol R); type: in vivo, Persian speedwell (Veronica persica); settings: amount of applied herbicide 320 g/ha
# Outline: as §2
# Italian ryegrass [6] = experiment: Test Example 5: herbicidal effect by foliage application, plastic box (Table 20, symbol K); type: in vivo, Italian ryegrass (Lolium multiflorum); settings: foliage application, 320 g/ha, three weeks after application
# Outline: as §1
# windgrass [7] = experiment: Test Example 5: herbicidal effect by foliage application, plastic box (Table 20, symbol L); type: in vivo, windgrass (Apera spica-venti); settings: foliage application, 320 g/ha, three weeks after application
# Outline: as §1
# velvetleaf [8] = experiment: Test Example 5: herbicidal effect by foliage application, plastic box (Table 20, symbol M); type: in vivo, velvetleaf (Abutilon theophrasti); settings: foliage application, 320 g/ha, three weeks after application
# Outline: as §1
# lambsquarters [9] = experiment: Test Example 5: herbicidal effect by foliage application, plastic box (Table 20, symbol O); type: in vivo, lambsquarters (Chenopodium album); settings: foliage application, 320 g/ha, three weeks after application
# Outline: as §1
# windgrass [10] = experiment: Test Example 4: herbicidal effect by soil treatment (Table 19, symbol L); type: in vivo, windgrass (Apera spica-venti); settings: amount of applied herbicide 320 g/ha
# Outline: as §2
# redroot pigweed [11] = experiment: Test Example 4: herbicidal effect by soil treatment (Table 19, symbol N); type: in vivo, redroot pigweed (Amaranthus retroflexus); settings: amount of applied herbicide 320 g/ha
# Outline: as §2
# barnyard grass [12] = experiment: Test Example 5: herbicidal effect by foliage application, plastic box (Table 20, symbol H); type: in vivo, barnyard grass (Echinochloa crus-galli); settings: foliage application, 320 g/ha, three weeks after application
# Outline: as §1
# persian speedwell [13] = experiment: Test Example 5: herbicidal effect by foliage application, plastic box (Table 20, symbol R); type: in vivo, Persian speedwell (Veronica persica); settings: foliage application, 320 g/ha, three weeks after application
# Outline: as §1
# barnyard grass [14] = experiment: Test Example 3: herbicidal effect by foliage application, Wagner pot (Table 18, symbol H); type: in vivo, barnyard grass (Echinochloa crus-galli); settings: 320 g/ha
# Outline: (§3)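 Plants were sown in alluvial soil held under 0.1–0.5 cm standing water and grown 14 days in a greenhouse at 25–30 °C. An emulsifiable formulation, water-diluted to the set dose, was then sprayed onto the foliage, and effects were scored three weeks later using previously defined criteria.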
# chickweed [15] = experiment: Test Example 4: herbicidal effect by soil treatment (Table 19, symbol P); type: in vivo, common chickweed (Stellaria media); settings: amount of applied herbicide 320 g/ha
# Outline: as §2
# southern crabgrass [16] = experiment: Test Example 4: herbicidal effect by soil treatment (Table 19, symbol F); type: in vivo, southern crabgrass (Digitaria ciliaris); settings: amount of applied herbicide 320 g/ha
# Outline: as §2
# blackgrass [17] = experiment: Test Example 4: herbicidal effect by soil treatment (Table 19, symbol J); type: in vivo, blackgrass (Alopecurus myosuroides); settings: amount of applied herbicide 320 g/ha
# Outline: as §2
# barnyard grass [18] = experiment: Test Example 4: herbicidal effect by soil treatment (Table 19, symbol H); type: in vivo, barnyard grass (Echinochloa crus-galli); settings: amount of applied herbicide 320 g/ha
# Outline: as §2
# lambsquarters [19] = experiment: Test Example 4: herbicidal effect by soil treatment (Table 19, symbol O); type: in vivo, lambsquarters (Chenopodium album); settings: amount of applied herbicide 320 g/ha
# Outline: as §2
# redroot pigweed [20] = experiment: Test Example 5: herbicidal effect by foliage application, plastic box (Table 20, symbol N); type: in vivo, redroot pigweed (Amaranthus retroflexus); settings: foliage application, 320 g/ha, three weeks after application
# Outline: as §1
# Chinese sprangletop = experiment: Test Example 3: herbicidal effect by foliage application, Wagner pot (Table 18, symbol D); type: in vivo, chinese sprangletop (Leptochloa chinensis); settings: 320 g/ha
# Outline: as §3
# false cleavers [21] = experiment: Test Example 4: herbicidal effect by soil treatment (Table 19, symbol Q); type: in vivo, false cleavers (Galium spurium); settings: amount of applied herbicide 320 g/ha
# Outline: as §2
# false cleavers [22] = experiment: Test Example 5: herbicidal effect by foliage application, plastic box (Table 20, symbol Q); type: in vivo, false cleavers (Galium spurium); settings: foliage application, 320 g/ha, three weeks after application
# Outline: as §1
# wild oat [23] = experiment: Test Example 4: herbicidal effect by soil treatment (Table 19, symbol I); type: in vivo, wild oat (Avena fatua); settings: amount of applied herbicide 320 g/ha
# Outline: as §2
# green foxtail [24] = experiment: Test Example 5: herbicidal effect by foliage application, plastic box (Table 20, symbol G); type: in vivo, green foxtail (Setaria viridis); settings: foliage application, 320 g/ha, three weeks after application
# Outline: as §1
# Italian ryegrass [25] = experiment: Test Example 4: herbicidal effect by soil treatment (Table 19, symbol K); type: in vivo, Italian ryegrass (Lolium multiflorum); settings: amount of applied herbicide 320 g/ha
# Outline: as §2
# southern crabgrass [26] = experiment: Test Example 5: herbicidal effect by foliage application, plastic box (Table 20, symbol F); type: in vivo, southern crabgrass (Digitaria ciliaris); settings: foliage application, 320 g/ha, three weeks after application
# Outline: as §1
# rice flat sedge = experiment: Test Example 3: herbicidal effect by foliage application, Wagner pot (Table 18, symbol E); type: in vivo, rice flat sedge (Cyperus iria); settings: 320 g/ha
# Outline: as §3
# green foxtail [27] = experiment: Test Example 4: herbicidal effect by soil treatment (Table 19, symbol G); type: in vivo, green foxtail (Setaria viridis); settings: amount of applied herbicide 320 g/ha
# Outline: as §2
structure (smiles),measurement,setting,value
CSc1ccc(-c2sc3ccccc3c2-c2c(O)c(C)nn(C)c2=O)cc1 [1-036],"herbicidal effect grade, P: chickweed",chickweed [1],5 (Herbicidal rate of 90% or more (almost completely withered))
same,"herbicidal effect grade, J: blackgrass",blackgrass [2],4 (Herbicidal rate of 70% or more and less than 90%)
same,"herbicidal effect rating, M: velvetleaf",velvetleaf [3],2 (Herbicidal rate of 20% or more and less than 40%)
same,"herbicidal effect grade, I: wild oat",wild oat [4],2 (Herbicidal rate of 20% or more and less than 40%)
same,"herbicidal effect rating, R: persian speedwell",persian speedwell [5],5 (Herbicidal rate of 90% or more (almost completely withered))
same,"herbicidal effect grade, K: Italian ryegrass",Italian ryegrass [6],4 (Herbicidal rate of 70% or more and less than 90%)
same,"herbicidal effect grade, L: windgrass",windgrass [7],3 (Herbicidal rate of 40% or more and less than 70%)
same,"herbicidal effect grade, M: velvetleaf",velvetleaf [8],5 (Herbicidal rate of 90% or more (almost completely withered))
same,"herbicidal effect grade, O: lambsquarters",lambsquarters [9],4 (Herbicidal rate of 70% or more and less than 90%)
same,"herbicidal effect rating, L: windgrass",windgrass [10],0 (Herbicidal rate of 5% or less (almost no effect))
same,"herbicidal effect rating, N: redroot pigweed",redroot pigweed [11],5 (Herbicidal rate of 90% or more (almost completely withered))
same,"herbicidal effect grade, H: barnyard grass",barnyard grass [12],4 (Herbicidal rate of 70% or more and less than 90%)
same,"herbicidal effect grade, R: persian speedwell",persian speedwell [13],5 (Herbicidal rate of 90% or more (almost completely withered))
same,"herbicidal effect on H (barnyard grass), rating 0-5",barnyard grass [14],5 (Herbicidal rate of 90% or more (almost completely withered))
same,"herbicidal effect rating, P: chickweed",chickweed [15],5 (Herbicidal rate of 90% or more (almost completely withered))
same,"herbicidal effect rating, F: southern crabgrass",southern crabgrass [16],0 (Herbicidal rate of 5% or less (almost no effect))
same,"herbicidal effect rating, J: blackgrass",blackgrass [17],0 (Herbicidal rate of 5% or less (almost no effect))
same,"herbicidal effect rating, H: barnyard grass",barnyard grass [18],4 (Herbicidal rate of 70% or more and less than 90%)
same,"herbicidal effect rating, O: lambsquarters",lambsquarters [19],5 (Herbicidal rate of 90% or more (almost completely withered))
same,"herbicidal effect grade, N: redroot pigweed",redroot pigweed [20],5 (Herbicidal rate of 90% or more (almost completely withered))
same,"herbicidal effect on D (Chinese sprangletop), rating 0-5",Chinese sprangletop,3 (Herbicidal rate of 40% or more and less than 70%)
same,"herbicidal effect rating, Q: false cleavers",false cleavers [21],0 (Herbicidal rate of 5% or less (almost no effect))
same,"herbicidal effect grade, Q: false cleavers",false cleavers [22],4 (Herbicidal rate of 70% or more and less than 90%)
same,"herbicidal effect rating, I: wild oat",wild oat [23],0 (Herbicidal rate of 5% or less (almost no effect))
same,"herbicidal effect grade, G: green foxtail",green foxtail [24],4 (Herbicidal rate of 70% or more and less than 90%)
same,"herbicidal effect rating, K: Italian ryegrass",Italian ryegrass [25],5 (Herbicidal rate of 90% or more (almost completely withered))
same,"herbicidal effect grade, F: southern crabgrass",southern crabgrass [26],0 (Herbicidal rate of 5% or less (almost no effect))
same,"herbicidal effect on E (rice flat sedge), rating 0-5",rice flat sedge,5 (Herbicidal rate of 90% or more (almost completely withered))
CCCC(=O)Oc1c(C)nn(C)c(=O)c1-c1c(-c2ccc3c(c2)OCCO3)sc2cc(Cl)ccc12 [3-048],"P: chickweed, herbicidal effect grade",chickweed [1],5 (Herbicidal rate of 90% or more (almost completely withered))
same,"J: blackgrass, herbicidal effect grade",blackgrass [2],0 (Herbicidal rate of 5% or less (almost no effect))
same,"M: velvetleaf, herbicidal effect grade",velvetleaf [3],0 (Herbicidal rate of 5% or less (almost no effect))
same,"I: wild oat, herbicidal effect grade",wild oat [4],0 (Herbicidal rate of 5% or less (almost no effect))
same,"R: persian speedwell, herbicidal effect grade",persian speedwell [5],0 (Herbicidal rate of 5% or less (almost no effect))
same,"K: Italian ryegrass, herbicidal effect grade",Italian ryegrass [6],0 (Herbicidal rate of 5% or less (almost no effect))
same,"L: windgrass, herbicidal effect grade",windgrass [7],0 (Herbicidal rate of 5% or less (almost no effect))
same,"M: velvetleaf, herbicidal effect grade",velvetleaf [8],1 (Herbicidal rate of 5% or more and less than 20%)
same,"O: lambsquarters, herbicidal effect grade",lambsquarters [9],3 (Herbicidal rate of 40% or more and less than 70%)
same,"L: windgrass, herbicidal effect grade",windgrass [10],0 (Herbicidal rate of 5% or less (almost no effect))
same,"N: redroot pigweed, herbicidal effect grade",redroot pigweed [11],0 (Herbicidal rate of 5% or less (almost no effect))
same,"H: barnyard grass, herbicidal effect grade",barnyard grass [12],0 (Herbicidal rate of 5% or less (almost no effect))
same,herbicidal effect on barnyard grass (H),barnyard grass [14],4 (Herbicidal rate of 70% or more and less than 90%)
same,"P: chickweed, herbicidal effect grade",chickweed [15],1 (Herbicidal rate of 5% or more and less than 20%)
same,"F: southern crabgrass, herbicidal effect grade",southern crabgrass [16],0 (Herbicidal rate of 5% or less (almost no effect))
same,"J: blackgrass, herbicidal effect grade",blackgrass [17],0 (Herbicidal rate of 5% or less (almost no effect))
same,"H: barnyard grass, herbicidal effect grade",barnyard grass [18],0 (Herbicidal rate of 5% or less (almost no effect))
same,"G: green foxtail, herbicidal effect grade",green foxtail [27],0 (Herbicidal rate of 5% or less (almost no effect))
same,"O: lambsquarters, herbicidal effect grade",lambsquarters [19],0 (Herbicidal rate of 5% or less (almost no effect))
same,"N: redroot pigweed, herbicidal effect grade",redroot pigweed [20],3 (Herbicidal rate of 40% or more and less than 70%)
same,herbicidal effect on Chinese sprangletop (D),Chinese sprangletop,0 (Herbicidal rate of 5% or less (almost no effect))
same,"Q: false cleavers, herbicidal effect grade",false cleavers [21],4 (Herbicidal rate of 70% or more and less than 90%)
same,"Q: false cleavers, herbicidal effect grade",false cleavers [22],4 (Herbicidal rate of 70% or more and less than 90%)
same,"I: wild oat, herbicidal effect grade",wild oat [23],0 (Herbicidal rate of 5% or less (almost no effect))
same,"G: green foxtail, herbicidal effect grade",green foxtail [24],0 (Herbicidal rate of 5% or less (almost no effect))
same,"K: Italian ryegrass, herbicidal effect grade",Italian ryegrass [25],0 (Herbicidal rate of 5% or less (almost no effect))
same,"F: southern crabgrass, herbicidal effect grade",southern crabgrass [26],0 (Herbicidal rate of 5% or less (almost no effect))
same,herbicidal effect on rice flat sedge (E),rice flat sedge,2 (Herbicidal rate of 20% or more and less than 40%)

# Reference: patent US20230085307A1, “PYRIDAZINONE COMPOUND AND HERBICIDE” (NISSAN CHEMICAL CORPORATION, priority 2019, published 2023)
